Values joined by “and” are separate entries in the source; they are usually repeats but may differ in a detail not shown here. Equal values may be shown once. “Also recorded” adds a separate entry of the source. Read-outs that look alike come from different tables or passages of the source.
What was measured:
[1] = test system: TTXs-I Na in small-diameter IB4 ^± DRG neurons
Procedure: (§1) Spinal level L3–L5 DRG were removed and placed in ice-cold HEPES-buffered saline (HBS) composed of (in mM): 154 NaCl, 2.5 KCl, 1.8 CaCl2, 1.5 MgCl2, 10 HEPES, and 10 glucose (pH 7.4, 330 ± 5 mOsm). Iridectomy scissors were utilized to cut up ganglia before incubation at 37°C for 15 min in oxygenated HBS containing 5 mg ml^−1 collagenase type 2 (Worthington Biochemical Corp, Lakewood, NJ, United States) followed by 25 min in oxygenated HBS containing 1 mg ml^−1 papain (Worthington Biochemical Corp). […] After enzyme treatment, ganglia were placed in 3 ml of HBS following two room temperature HBS washes. Ganglia were then triturated through fire-polished Pasteur pipettes with decreasing bores to extract cells. Finally, the cells mixed in HBS were plated onto surface modified culture dishes (Corning Primaria™ easy grip). […] DRG cells were pre-treated with 1 μg ml^−1 Alexa Fluor 488-conjugated Bandeiraea simplicifolia IB4 (Invitrogen) for 5 min at room temperature and washed with HBS for 5 min before fluorescence was examined on the inverted microscope (Olympus, IX50) used for patch clamp recordings.
(§2) Cell size was determined from an eyepiece graticule. Whole-cell electrophysiology was conducted at room temperature (22–24°C) in culture dishes perfused with room temperature HBS. The intracellular pipette solution contained (mM): 120 CsCl, 10 HEPES, 10 EGTA, 2 CaCl2, 5 MgATP, 5 Na2GTP, 5 NaCl; pH 7.3 (CsOH); 285 ± 5 mos mol l^−1.
(§3) An EPC-9 patch-clamp amplifier and corresponding PULSE software from HEKA Electronik (Lambrecht/Pfalz, Germany) were used to make recordings. Currents were sampled at 50 kHz and recorded on a hard disk. Borosilicate glass from AM Systems, Everett, WA, United States were used for patch pipettes. The input resistance of the pipettes ranged from 2 to 4 MΩ. […] A built-in procedure of the HEKA amplifier compensated for the capacitive transient currents. A −P/6 protocol was utilized to subtract leak current online. I Ca was generated with the recording protocol which included a depolarization from a holding potential of −80 mV to 0 mV for 10 ms every 30 s. I Na was generated through a recording protocol which included a step depolarization from a holding potential of −80 mV to 0 mV for 10 ms at a frequency of 0.1 Hz. Cells were perfused with the test compound via a pressure driven perfusion system (AutoMate Scientific, United States).
(§4) All data analysis and graphs were generated in OriginPro (Origin Lab Corporation, United States). […] Activation and SSI curves were fit by the modified Boltzmann equation: I or G=1/(1+exp(Vm−V0.5/ka)) Where I is the current or G is the conductance, Vm is the pre-pulse potential, V 0.5 is the half-maximal activation potential and ka is the slope factor.
(§5) Statistical significance (p < 0.05) was determined using unpaired Student’s t-test or 1-way ANOVA followed by a Tukey multiple comparison. All data is presented as mean ± SEM (n), where n is individual cells.

[2] = test system: TTXs-I Na in small-diameter IB4 ^− DRG neurons
Procedure: as §1, §2, §3, §4, §5

[3] = test system: HVA I Ca in small-diameter IB4 ^− DRG neurons; assay: cells
Procedure: as §1, §2, §3, §4, §5

hCav2.2 = target: T1, hCav2.2 (Homo sapiens, UniProt Q00975); assay: cell-based
T1 construct: expressed in transfected cells; host or cells: HEK293 (HEK293T), transient calcium phosphate co-transfection
Procedure: Human embryonic kidney (HEK293T) cells containing the SV40 Large T-antigen were cultured at 37°C, 5% CO2 in Dulbecco’s Modified Eagle’s Medium (DMEM, Invitrogen Life Technologies, Australia), supplemented with 10% fetal bovine serum (FBS, Bovigen, Australia), 1% GlutaMAX and penicillin-streptomycin (Invitrogen, Australia). HEK293 cells were then transiently co-transfected with the different voltage-gated calcium channel isoforms and green fluorescent protein (GFP) for visualization, using the calcium phosphate method. cDNAs encoding mCav1.2 (a gift from Dr. D. Lipscombe; Addgene plasmid #26572) ([Helton et al., 2005]), rCav1.3 (a gift from Dr. D. Lipscombe; Addgene plasmid # 49,333) ([Xu and Lipscombe, 2001]), hCav2.1 (a gift from Dr. J. Striessnig), rCav2.2 (a gift from Dr. D. Lipscombe), hCav2.2 (a gift from Dr. D. Yue), hCav2.3 (purchased from GenScript United States Inc.) were co-transfected with β3, α2δ1 and GFP. After transfection, cells were plated on 12 mm cover glass and transferred to a 30°C incubator for 1–3 days.
Depolarization-activated Ca^2+ currents (ICa) in transfected HEK293 cells were recorded in the whole-cell patch clamp configuration. Data were recorded using a MultiClamp 700B amplifier, digitized with a DigiData1440 and controlled using Clampex10.7 software (Molecular Devices, United States). Currents were sampled at 100 kHz and filtered to 10 kHz, with leak and capacitive currents subtracted using a −P/4 protocol. […] Intracellular recording solution contained as follows (mM): 140 KGluconate, 5 NaCl, 2 MgCl2, 5 EGTA and 10 HEPES, pH 7.2 with KOH. Cells were continuously perfused with extracellular solution at a rate of ∼1.2 ml/min. […]
(§6) Statistical significance (p < 0.05) was determined using unpaired Student’s t-test or 1-way ANOVA followed by a Tukey multiple comparison. […]
(§7) Numerous HVA Cav channel isoforms are present in rat DRG neurons. […] We transiently co-transfected the individual Cav channel α-subunits of interest together with β3 and α2δ1 subunits in HEK293 cells and measured whole-cell I Ca currents by patch clamp. […]

rCav2.2 = assay: Whole-cell patch clamp, recombinant rCav2.2 in HEK293; assay type: cell-based, rat; conditions: 10 µM
Procedure: (§8) Human embryonic kidney (HEK293T) cells containing the SV40 Large T-antigen were cultured at 37°C, 5% CO2 in Dulbecco’s Modified Eagle’s Medium (DMEM, Invitrogen Life Technologies, Australia), supplemented with 10% fetal bovine serum (FBS, Bovigen, Australia), 1% GlutaMAX and penicillin-streptomycin (Invitrogen, Australia). […]
(§9) Depolarization-activated Ca^2+ currents (ICa) in transfected HEK293 cells were recorded in the whole-cell patch clamp configuration. Data were recorded using a MultiClamp 700B amplifier, digitized with a DigiData1440 and controlled using Clampex10.7 software (Molecular Devices, United States). […]
as §6, §7

hCav2.3 = assay: Whole-cell patch clamp, recombinant hCav2.3 in HEK293; assay type: cell-based, human
Procedure: as §8, §9, §6, §7

hCav2.1 = assay: Whole-cell patch clamp, recombinant hCav2.1 in HEK293; assay type: cell-based, human; conditions: 10 µM
Procedure: as §8, §9, §6, §7

T1 sequence (P54289 25-956): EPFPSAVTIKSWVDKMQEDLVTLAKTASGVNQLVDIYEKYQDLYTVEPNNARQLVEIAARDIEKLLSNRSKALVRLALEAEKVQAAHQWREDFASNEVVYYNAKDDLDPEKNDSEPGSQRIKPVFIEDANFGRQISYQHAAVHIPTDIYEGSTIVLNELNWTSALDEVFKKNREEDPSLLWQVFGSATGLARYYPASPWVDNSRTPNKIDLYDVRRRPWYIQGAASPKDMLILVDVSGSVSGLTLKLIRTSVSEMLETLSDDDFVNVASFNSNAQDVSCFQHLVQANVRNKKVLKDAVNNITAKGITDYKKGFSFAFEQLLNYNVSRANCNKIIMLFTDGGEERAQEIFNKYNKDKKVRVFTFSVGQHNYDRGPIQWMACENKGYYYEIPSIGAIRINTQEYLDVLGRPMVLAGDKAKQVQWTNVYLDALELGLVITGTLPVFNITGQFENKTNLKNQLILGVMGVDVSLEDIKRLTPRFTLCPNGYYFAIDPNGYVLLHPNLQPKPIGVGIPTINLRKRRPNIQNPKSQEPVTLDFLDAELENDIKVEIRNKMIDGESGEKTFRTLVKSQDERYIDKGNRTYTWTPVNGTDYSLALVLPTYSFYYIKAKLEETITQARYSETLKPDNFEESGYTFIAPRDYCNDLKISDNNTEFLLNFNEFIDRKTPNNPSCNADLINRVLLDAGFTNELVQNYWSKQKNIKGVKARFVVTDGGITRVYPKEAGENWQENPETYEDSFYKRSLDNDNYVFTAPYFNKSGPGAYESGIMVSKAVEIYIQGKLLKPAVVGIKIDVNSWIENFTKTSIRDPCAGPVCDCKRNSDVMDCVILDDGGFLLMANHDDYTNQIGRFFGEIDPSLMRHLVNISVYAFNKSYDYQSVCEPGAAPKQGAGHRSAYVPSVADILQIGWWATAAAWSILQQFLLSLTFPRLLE
T1 sequence (P54289 957-1103): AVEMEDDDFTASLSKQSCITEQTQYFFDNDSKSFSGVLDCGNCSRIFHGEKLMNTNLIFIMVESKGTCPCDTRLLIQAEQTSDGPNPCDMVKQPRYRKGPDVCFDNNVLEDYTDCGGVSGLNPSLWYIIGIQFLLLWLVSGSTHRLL
T1 sequence (Q00975 whole entry): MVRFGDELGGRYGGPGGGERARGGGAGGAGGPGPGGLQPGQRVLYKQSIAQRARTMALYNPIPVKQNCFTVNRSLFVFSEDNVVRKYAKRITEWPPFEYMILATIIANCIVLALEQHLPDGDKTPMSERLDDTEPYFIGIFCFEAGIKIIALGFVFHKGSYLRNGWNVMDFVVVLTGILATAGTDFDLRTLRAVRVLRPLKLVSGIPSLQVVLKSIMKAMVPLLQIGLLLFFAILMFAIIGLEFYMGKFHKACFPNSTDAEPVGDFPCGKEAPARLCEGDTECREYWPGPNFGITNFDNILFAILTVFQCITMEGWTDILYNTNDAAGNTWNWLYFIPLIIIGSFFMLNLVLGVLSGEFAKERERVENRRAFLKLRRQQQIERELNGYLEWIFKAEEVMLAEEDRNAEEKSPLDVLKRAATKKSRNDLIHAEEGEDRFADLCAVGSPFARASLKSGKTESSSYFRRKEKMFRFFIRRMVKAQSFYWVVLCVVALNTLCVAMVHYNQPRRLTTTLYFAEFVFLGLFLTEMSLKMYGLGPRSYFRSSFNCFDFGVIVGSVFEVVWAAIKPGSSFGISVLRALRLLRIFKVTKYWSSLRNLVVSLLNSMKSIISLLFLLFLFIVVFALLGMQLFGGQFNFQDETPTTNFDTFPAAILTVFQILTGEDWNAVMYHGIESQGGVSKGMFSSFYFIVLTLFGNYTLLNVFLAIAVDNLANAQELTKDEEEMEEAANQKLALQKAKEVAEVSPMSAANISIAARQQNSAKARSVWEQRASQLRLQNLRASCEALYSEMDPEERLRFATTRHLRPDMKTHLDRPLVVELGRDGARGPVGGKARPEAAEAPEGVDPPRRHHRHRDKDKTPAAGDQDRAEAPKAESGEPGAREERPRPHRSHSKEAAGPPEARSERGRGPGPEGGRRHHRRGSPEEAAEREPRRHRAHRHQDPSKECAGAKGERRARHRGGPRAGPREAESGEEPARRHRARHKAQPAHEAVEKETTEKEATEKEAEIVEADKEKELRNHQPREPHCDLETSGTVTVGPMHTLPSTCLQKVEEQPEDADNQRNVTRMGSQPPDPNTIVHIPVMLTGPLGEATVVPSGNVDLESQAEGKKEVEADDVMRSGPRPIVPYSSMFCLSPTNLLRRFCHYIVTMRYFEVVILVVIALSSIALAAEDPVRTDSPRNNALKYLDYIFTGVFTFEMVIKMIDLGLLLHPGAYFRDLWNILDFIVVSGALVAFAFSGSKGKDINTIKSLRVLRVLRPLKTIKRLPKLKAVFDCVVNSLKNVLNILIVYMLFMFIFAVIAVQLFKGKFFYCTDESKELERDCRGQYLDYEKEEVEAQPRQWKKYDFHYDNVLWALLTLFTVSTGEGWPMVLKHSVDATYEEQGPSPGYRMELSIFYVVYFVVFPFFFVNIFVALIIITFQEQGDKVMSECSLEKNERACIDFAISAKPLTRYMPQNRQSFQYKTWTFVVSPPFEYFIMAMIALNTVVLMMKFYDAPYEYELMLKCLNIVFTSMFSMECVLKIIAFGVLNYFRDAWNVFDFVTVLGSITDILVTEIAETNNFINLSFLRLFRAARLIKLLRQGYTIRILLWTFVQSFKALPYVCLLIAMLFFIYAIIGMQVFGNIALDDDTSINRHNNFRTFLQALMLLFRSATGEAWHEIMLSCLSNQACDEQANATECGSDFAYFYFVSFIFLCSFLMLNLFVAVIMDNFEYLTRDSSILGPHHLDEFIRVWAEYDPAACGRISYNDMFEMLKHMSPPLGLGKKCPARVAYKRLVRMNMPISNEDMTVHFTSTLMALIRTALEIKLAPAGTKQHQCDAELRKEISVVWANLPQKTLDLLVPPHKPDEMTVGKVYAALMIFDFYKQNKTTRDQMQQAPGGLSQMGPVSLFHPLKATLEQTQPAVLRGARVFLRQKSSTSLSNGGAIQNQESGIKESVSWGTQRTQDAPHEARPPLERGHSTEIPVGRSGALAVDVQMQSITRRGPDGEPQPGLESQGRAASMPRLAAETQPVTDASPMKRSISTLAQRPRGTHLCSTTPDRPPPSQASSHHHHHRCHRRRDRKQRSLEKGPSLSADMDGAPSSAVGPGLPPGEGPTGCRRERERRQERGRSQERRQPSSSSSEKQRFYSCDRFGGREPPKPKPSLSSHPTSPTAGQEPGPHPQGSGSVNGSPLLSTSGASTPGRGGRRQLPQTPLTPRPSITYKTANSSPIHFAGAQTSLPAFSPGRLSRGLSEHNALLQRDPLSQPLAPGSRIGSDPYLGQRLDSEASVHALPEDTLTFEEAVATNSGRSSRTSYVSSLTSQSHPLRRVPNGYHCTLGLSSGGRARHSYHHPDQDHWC
T1 sequence (P54284 whole entry, further chain): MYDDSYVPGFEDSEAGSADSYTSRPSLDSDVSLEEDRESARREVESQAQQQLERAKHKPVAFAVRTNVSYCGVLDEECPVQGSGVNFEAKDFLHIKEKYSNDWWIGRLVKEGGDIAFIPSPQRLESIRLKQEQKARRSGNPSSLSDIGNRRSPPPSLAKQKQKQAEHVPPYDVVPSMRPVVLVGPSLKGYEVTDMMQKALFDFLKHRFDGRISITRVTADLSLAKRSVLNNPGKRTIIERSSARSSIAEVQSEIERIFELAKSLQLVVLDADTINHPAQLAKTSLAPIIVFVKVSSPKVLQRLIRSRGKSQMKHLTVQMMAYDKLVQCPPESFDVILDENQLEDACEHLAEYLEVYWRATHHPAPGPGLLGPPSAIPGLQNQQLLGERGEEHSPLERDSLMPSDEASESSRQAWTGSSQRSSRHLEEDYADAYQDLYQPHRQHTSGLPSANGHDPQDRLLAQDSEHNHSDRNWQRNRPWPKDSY

Q: How did the “I Na remaining after application” value [1] turn out when CSCC[C@@H]1NC(=O)[C@H](Cc2ccc(O)cc2)NC(=O)[C@H](CCCNC(=N)N)NC(=O)[C@@H](NC(=O)[C@@H](N)CC(=O)O)CSSC[C@@H]2NC(=O)[C@@H]3CSSC[C@@H](C(=O)N[C@@H](C)C(=O)N[C@@H](Cc4c[nH]c5ccccc45)C(=O)N[C@@H](CC(=O)O)C(=O)N[C@@H](Cc4ccccc4)C(=O)N[C@H](C(=O)N[C@@H](Cc4ccccc4)C(=O)N[C@H](C(=O)O)[C@@H](C)O)[C@@H](C)O)NC(=O)[C@H](Cc4ccc(O)cc4)NC(=O)[C@H](CCCCN)NC(=O)[C@H](CCSC)NC(=O)[C@H](CCCCN)NC(=O)[C@H](CCCNC(=N)N)NC(=O)[C@H](CCCCN)NC(=O)[C@H](CSSC[C@H](NC(=O)[C@H](CC(=O)O)NC(=O)CNC(=O)[C@H](Cc4ccccc4)NC1=O)C(=O)N[C@@H](CCC(=O)O)C(=O)N[C@@H](CCCCN)C(=O)N[C@@H](CC(=O)O)C(=O)N[C@@H](CCC(=O)O)C(=O)N[C@@H](CC(=O)O)C(=O)N3)NC(=O)CNC(=O)[C@H](CC(C)C)NC(=O)[C@H](Cc1c[nH]cn1)NC(=O)[C@H](CCCCN)NC2=O [Pn3a, µ-Theraphotoxin-Pn3a] was run?
A: The value was roughly 50%.

Q: What about the “reversibility on washout of TTXs-I Na inhibition” value [1] of the same compound?
A: The value was “fully reversible upon washout”.

Q: And the “I Na remaining after application” value [2]?
A: Its value is roughly 50%.

Q: And the “potency loss versus reported recombinant hNav1.7” value [2]?
A: The value was roughly 250 fold.

Q: What about the “reversibility on washout of TTXs-I Na inhibition” value [2] of the same compound?
A: The value was “fully reversible upon washout”.

Q: What about the “HVA I Ca spared” value [3] of the same compound?
A: Its value is “half”.

Q: And the “inhibition of HVA I Ca” value [3]?
A: Its value is 4.45 ± 0.78%.

Q: What about the “suppression of I Ca” value [3] of the same compound?
A: Its value is 13.97 ± 1.39%.

Q: And the “inhibition of HVA I Ca” value ([3]; 10 µM)?
A: The value was ~55% and 56.5 ± 1.9%.

Q: And the “Hill coefficient n H” value (hCav2.2)?
A: Its value is 1.16 ± 0.07.

Q: What about the “effect on depolarization-activated hCav2.2 current kinetics (in words)” value (hCav2.2) of the same compound?
A: The value was “not altered”.

Q: What about the inhibition at 10 µM (hCav2.2; HEK293, read-out: inhibition of human Cav2.2-mediated current) of the same compound?
A: Its inhibition at 10 µM is 71.8 ± 0.6%.

Q: What about the “inhibition of rat Cav2.2-mediated current” value (rCav2.2) of the same compound?
A: Its value is 69.5 ± 1.0%.

Q: And the “effect on Cav2.3-mediated current (in words)” value (hCav2.3)?
A: The value was “no inhibition; also recorded: negligible effects; also recorded: minimally affected”.

Q: What about the “inhibition of Cav2.3-mediated current” value (hCav2.3; 10 µM) of the same compound?
A: Its value is 2.2 ± 0.9%.

Q: What about the “inhibition of Cav2.1-mediated current” value (hCav2.1) of the same compound?
A: Its value is 58.0 ± 1.8%.

From PMC7875911 (Frontiers in Pharmacology, 2021)
